From US20210393655A1, “Vesicular Formulations for Use in the Treatment of Pain or Reduced Mobility of a Joint” (Sequessome Technology Holdings Limited, priority 2012, published 2021)

Key:
Format in all cases: in vivo, human
[1] = test system: patients with osteoarthritis of the knee; experiment: Clinical trials in osteoarthritis of the knee: WOMAC physical function subscale
Experimental: (§1) One efficacy measure was the change from baseline to the end of the study in patients' perception of joint stiffness and physical function. In studies CL-033-III-03 and CL-033-III-06, joint stiffness was assessed using two single items describing the severity of stiffness, both of which were measured using an 11-point numerical rating (NRS) on the stiffness subscale of the Western Ontario and McMaster Universities (WOMAC) Osteoarthritis Index (version 3.1) instrument. A measure of physical function was performed in all six studies using the WOMAC Osteoarthritis Index (version 3.1), which consisted of 17 single items describing the difficulty in performing daily activities. Each item was rated on a VAS or an 11-point numerical scale.

[2] = test system: patients with osteoarthritis of the knee; experiment: Clinical trials in osteoarthritis of the knee: WOMAC stiffness subscale; details: study CL-033-III-03; end of 3 month treatment
Experimental: as §1, with “Six clinical trials were conducted with Formulation X on patients with osteoarthritis of the knee. One” for “One”

[3] = test system: patients with osteoarthritis of the knee; experiment: Clinical trial CL-033-III-03: WOMAC pain subscale
Experimental: as §1, with “Six clinical trials were conducted with Formulation X on patients with osteoarthritis of the knee. One” for “One”
Pain, joint mobility and physical function outcomes were compared in study CL-033-III-03.

[4] = oral celecoxib 100 mg b.i.d. (n = 233), 3 months, CL-033-III-03
[5] = study CL-033-III-03, end of 3 month treatment

With `Cc1ccc(-c2cc(C(F)(F)F)nn2-c2ccc(S(N)(=O)=O)cc2)cc1` [celecoxib] the “Effect size versus oral placebo (Mann-Whitney estimator, MW), WOMAC function subscale score” value [1, 4] was “MW = 0.5949”, the “Improvement in physical function (WOMAC function)” value [1, 5] was 38.2% and the “Reduction in stiffness (WOMAC stiffness)” value [2] was 37.9%. The “Effect size versus oral placebo (Mann-Whitney estimator, MW), WOMAC pain subscale score” value [3, 4] was “MW = 0.5873” and the “Reduction in joint pain (WOMAC pain)” value [3, 5] was 40.4%.
